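In this assay, cells in 96-well plates receive the compound at five concentrations for 48 hours. Endpoints are linearly interpolated between the surrounding concentrations. GI50 = concentration required for 50% inhibition of growth.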 Active and inactive are the calls of the source. Rule as the data show it: active = GI50 up to about 1.1 µM and inactive = higher.
Tests used:
Assay in all cases: inhibition of tumour cell growth, NCI panel, 48 h
[1] = tested on: 786-0
[2] = tested on: ACHN
[3] = tested on: DU-145
[4] = tested on: HCC 2998
[5] = tested on: HCT-116
[6] = tested on: IGROV-1
[7] = tested on: K562
[8] = tested on: KM12
[9] = tested on: MCF7
[10] = tested on: NCI-H226
[11] = tested on: OVCAR-4
[12] = tested on: OVCAR-5
[13] = tested on: RXF 393
[14] = tested on: SF-295
[15] = tested on: SK-MEL-28
[16] = tested on: SNB-75
[17] = tested on: SW-620
[18] = tested on: TK-10
[19] = tested on: UO-31

Compound	GI50 [1]	GI50 [2]	GI50 [3]	GI50 [4]	GI50 [5]	GI50 [6]	GI50 [7]	GI50 [8]	GI50 [9]	GI50 [10]	GI50 [11]	GI50 [12]	GI50 [13]	GI50 [14]	GI50 [15]	GI50 [16]	GI50 [17]	GI50 [18]	GI50 [19]
CC(=O)O[C@H]1CC[C@H]2[C@@H]3CCC4C(C)=NNC(=O)C4[C@H]3CC[C@]12C (stereo partly specified)	40.3 µM (inactive)	57.5 µM (inactive)	> 75.5 µM (inactive)	> 100 µM (inactive)	> 73.5 µM (inactive)	27 µM (inactive)	> 100 µM (inactive)	> 100 µM (inactive)	> 100 µM (inactive)	39.5 µM (inactive)	> 100 µM (inactive)	> 100 µM (inactive)	56.6 µM (inactive)	41.5 µM (inactive)	> 100 µM (inactive)	14.2 µM (inactive)	> 100 µM (inactive)	> 76.6 µM (inactive)	> 100 µM (inactive)
c1ccc2c(c1)SCCC2NC1=NCCO1 (stereo unspecified)	> 100 µM (inactive)	> 100 µM (inactive)	> 100 µM (inactive)	> 100 µM (inactive)	> 100 µM (inactive)	> 100 µM (inactive)	> 100 µM (inactive)	> 100 µM (inactive)	> 100 µM (inactive)	> 100 µM (inactive)	> 100 µM (inactive)	> 100 µM (inactive)	> 100 µM (inactive)	> 100 µM (inactive)	> 100 µM (inactive)	> 100 µM (inactive)	> 100 µM (inactive)	> 100 µM (inactive)	> 100 µM (inactive)
COc1cc(C2c3cc(O)c(OC)cc3C3OCC2C3CO)ccc1O (stereo unspecified)	> 100 µM (inactive)	> 100 µM (inactive)	> 100 µM (inactive)	> 100 µM (inactive)	76.9 µM (inactive)		> 100 µM (inactive)	> 100 µM (inactive)	> 100 µM (inactive)	> 100 µM (inactive)	> 100 µM (inactive)	> 100 µM (inactive)	> 100 µM (inactive)	> 100 µM (inactive)	> 100 µM (inactive)	> 100 µM (inactive)	> 100 µM (inactive)	> 100 µM (inactive)	> 100 µM (inactive)
O=C1Nc2ccc(S(=O)(=O)NCCO)cc2/C1=C1/Nc2ccccc2C1=O	9.31 µM (inactive)	6.97 µM (inactive)	8 µM (inactive)	53 µM (inactive)	3.13 µM (inactive)	1.04 µM (active)	4.28 µM (inactive)	0.385 µM (active)	0.475 µM (active)	> 100 µM (inactive)	3.06 µM (inactive)	46.5 µM (inactive)	4.36 µM (inactive)	42 µM (inactive)	> 100 µM (inactive)	1.97 µM (inactive)	11.9 µM (inactive)	18 µM (inactive)	52.5 µM (inactive)
CNCCCn1c2ccccc2c2c3c(c(-c4ccsc4)cc21)C(=O)NC3=O	0.259 µM (active)	< 0.0192 µM (active)	0.179 µM (active)	2.67 µM (inactive)	1.4 µM (inactive)	1.09 µM (active)	2.81 µM (inactive)	0.0174 µM (active)	0.0984 µM (active)	2.37 µM (inactive)	1.59 µM (inactive)	1.5 µM (inactive)	0.0112 µM (active)	0.0953 µM (active)	1.78 µM (inactive)	1.91 µM (inactive)	1.36 µM (inactive)	1.35 µM (inactive)	0.286 µM (active)
Cc1c(O)c(OC2OC(CO)C(O)C(O)C2O)cc2c1CC[C@@H]1C2(C)C(=O)C[C@]2(C)[C@@H]([C@@](C)(O)C3CCC(C)(C)O3)[C@H](O)C[C@@]12C (stereo partly specified)	> 100 µM (inactive)	> 100 µM (inactive)	> 100 µM (inactive)	> 100 µM (inactive)	> 100 µM (inactive)	> 100 µM (inactive)	> 100 µM (inactive)	> 100 µM (inactive)	> 100 µM (inactive)	> 100 µM (inactive)	> 100 µM (inactive)	> 100 µM (inactive)	> 100 µM (inactive)	> 100 µM (inactive)	> 100 µM (inactive)	> 100 µM (inactive)	> 100 µM (inactive)	> 100 µM (inactive)	> 100 µM (inactive)
O=C(CCc1cc(O)cc(O)c1)NCCc1cc(O)cc(O)c1	> 100 µM (inactive)	> 100 µM (inactive)	> 100 µM (inactive)	> 100 µM (inactive)	> 100 µM (inactive)	> 100 µM (inactive)	> 100 µM (inactive)	> 100 µM (inactive)	> 100 µM (inactive)	> 100 µM (inactive)		> 100 µM (inactive)	> 100 µM (inactive)	> 100 µM (inactive)	> 100 µM (inactive)	> 100 µM (inactive)	> 100 µM (inactive)	> 100 µM (inactive)	> 100 µM (inactive)
